Assay results taken from patent publication US10016423B2, “Solid forms of nilotinib hydrochloride” (Apotex Inc., priority 2014, dated 2018).

Test: Comparative hygroscopicity testing (water content by Karl Fischer analysis)
Format: physicochemical
Conditions: for Water content of sample after testing: after 24 hours at 25° C. in desiccator containing saturated ammonium sulphate solution, 1 g sample in unstoppered vessel, KF analysis; for Increase in water content: after vs before 24 hours at 25° C. over saturated ammonium sulphate solution; for Water content of sample before testing: before hygroscopicity testing, Karl Fischer (KF) analysis
Protocol: The hygroscopicity of form APO-III as reported in WO 2014/059518 A1 was compared with the hygroscopicity of the form APO-VII of the present invention.
The hygroscopicity testing was conducted by placing 1 g of each sample in an unstoppered weighing vessel in a desiccator containing a saturated ammonium sulphate solution. The desiccator was placed in an oven at 25° C. for 24 hours. The water content was measured before and after the testing by Karl Fischer (KF) analysis.

| Water content of sample after testing | Increase in water content | Water content of sample before testing | SMILES |
| --- | --- | --- | --- |
| 3.5671 % w/w | 3.2795 | 0.2876 % w/w | Cc1cn(-c2cc(NC(=O)c3ccc(C)c(Nc4nccc(-c5cccnc5)n4)c3)cc(C(F)(F)F)c2)cn1.Cl [Form APO-III] |
| 0.4757 % w/w | 0.1812 | 0.2945 % w/w | Cc1cn(-c2cc(NC(=O)c3ccc(C)c(Nc4nccc(-c5cccnc5)n4)c3)cc(C(F)(F)F)c2)cn1.Cl [Form APO-VII] |
